# Measurements from patent US20080234132A1, “Microcin B17 Analogs And Methods For Their Preparation And Use” (priority 2004, published 2008).
# What was measured:
# HT-29 cells [1] = experiment: MTT cell viability assay, HT-29; format: cell-based, human; details: cell reads on: Active
# Method: (§4) Human cell cultures were initiated from frozen cell stocks (the gift of Dr J. Gavrilovic, UEA). […] Both human cell lines form adherent cultures and were maintained at 37° C. in T25 culture vessels as 10 mL cultures in CO2 Independent Media containing 10% foetal bovine serum (EU approved), 4 mM L-glutamine, penicillin/streptomycin (Invitrogen). […] Media was renewed every three days.
# (§5) After incubation with MTT and solubilization, the resulting coloured solution is quantified using a scanning spectrophotometer. […] Cell viability was then determined by addition of MTT reagent (20 μL) in each well, as per manufacturer's instructions and incubated for a further 4 hours. Solubilization solution (100 μL) was added per well and the plates incubated overnight at 37° C. The plates were read in a spectrophotometer (scanning from 500-650 nm, signal peak at 570 nm).
# E. coli Topoisomerase IV [2] = target: T1, E. coli Topoisomerase IV (Escherichia coli, UniProt P0AFI2+P20083); experiment: Topoisomerase IV-mediated decatenation assay; format: biochemical; design: purchased John Innes Enterprises
# T1 sequence (P20083 whole entry): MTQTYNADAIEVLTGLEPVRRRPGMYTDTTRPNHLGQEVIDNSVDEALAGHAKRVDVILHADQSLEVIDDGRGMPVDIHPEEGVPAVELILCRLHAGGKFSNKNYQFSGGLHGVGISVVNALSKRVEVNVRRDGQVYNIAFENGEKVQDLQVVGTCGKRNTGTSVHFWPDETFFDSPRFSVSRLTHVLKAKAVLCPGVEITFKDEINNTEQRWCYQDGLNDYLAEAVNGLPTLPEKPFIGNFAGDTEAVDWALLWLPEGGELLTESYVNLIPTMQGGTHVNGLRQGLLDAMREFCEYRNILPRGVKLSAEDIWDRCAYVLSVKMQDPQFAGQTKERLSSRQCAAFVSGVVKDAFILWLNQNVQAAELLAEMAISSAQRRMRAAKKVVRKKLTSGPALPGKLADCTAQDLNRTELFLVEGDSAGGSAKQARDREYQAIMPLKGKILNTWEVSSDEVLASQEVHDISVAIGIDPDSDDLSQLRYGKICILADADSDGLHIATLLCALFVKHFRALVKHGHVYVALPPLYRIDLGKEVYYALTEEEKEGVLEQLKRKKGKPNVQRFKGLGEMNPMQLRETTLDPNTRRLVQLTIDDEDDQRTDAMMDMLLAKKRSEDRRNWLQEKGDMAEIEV
# T1 sequence (P0AFI2 whole entry): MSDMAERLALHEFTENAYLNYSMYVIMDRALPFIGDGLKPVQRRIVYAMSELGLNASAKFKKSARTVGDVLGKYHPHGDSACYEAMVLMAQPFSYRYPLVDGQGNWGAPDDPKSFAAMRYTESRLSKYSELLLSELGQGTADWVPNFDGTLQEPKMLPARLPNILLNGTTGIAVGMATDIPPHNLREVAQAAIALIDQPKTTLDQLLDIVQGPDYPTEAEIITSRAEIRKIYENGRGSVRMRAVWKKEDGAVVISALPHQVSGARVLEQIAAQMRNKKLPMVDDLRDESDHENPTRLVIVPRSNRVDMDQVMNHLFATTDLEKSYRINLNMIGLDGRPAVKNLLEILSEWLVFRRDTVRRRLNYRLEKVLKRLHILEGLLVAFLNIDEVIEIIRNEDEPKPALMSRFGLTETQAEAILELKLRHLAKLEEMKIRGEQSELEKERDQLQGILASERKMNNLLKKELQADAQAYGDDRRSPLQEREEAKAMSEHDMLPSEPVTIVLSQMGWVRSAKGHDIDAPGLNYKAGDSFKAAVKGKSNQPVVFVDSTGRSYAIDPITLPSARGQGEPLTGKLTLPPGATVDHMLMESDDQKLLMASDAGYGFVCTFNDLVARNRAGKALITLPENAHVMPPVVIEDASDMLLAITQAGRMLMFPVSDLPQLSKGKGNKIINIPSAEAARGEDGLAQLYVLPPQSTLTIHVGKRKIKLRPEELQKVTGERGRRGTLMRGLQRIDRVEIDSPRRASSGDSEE
# Method: Topoisomerase IV-mediated relaxation assays and decatenation assays were performed as previously described (see Peng and Marians, 1993). Relaxation assays contained topoisomerase IV (20 nM), 40 mM Tris.HCl pH 7.5 at 30° C., 6 mM MgCl2, 10 mM DTT, 1 mM spermidine.HCl, 20 mM KCl, 1 mM ATP, 0.5 mg/mL BSA, 4.6 nM of supercoiled pBR322 DNA and inhibitor where appropriate. Decatenation assays contained topoisomerase IV (4 nM), 40 mM Tris HCl pH 7.5 at 30° C., 6 mM MgCl2, 10 mM DTT, 1 mM spermidine.HCl, 100 mM potassium glutamate, 0.5 mM ATP, 0.5 mg/mL BSA, 200 ng of kinetoplast DNA, and inhibitor where appropriate.
# (§1) All in vitro reactions were incubated at 37° C. for 30 minutes. The DMSO concentration in each reaction was kept constant at 3.33%. Reactions were quenched with the addition of an equal volume of phenol/chloroform/isoamyl alcohol (25:24:1) and one tenth volume of loading buffer containing 40% sucrose, 100 mM Tris.HCl pH 7.5, 100 mM EDTA, 2 mg/mL bromophenol blue. The proteins were precipitated by vortexing, followed by centrifugation for 5 minutes at 16 000 g. The aqueous phase was loaded onto 1% agarose gels in Tris-acetate and were electrophoresed at 60 V for three hours in Tris-acetate buffer. The gels were stained in 1 μg/mL ethidium bromide. The gels were visualised using UV light and were documented and analysed using Syngene software.
# Human topoisomerase IIα = Human topoisomerase IIα (Homo sapiens, UniProt P11388); experiment: Human topoisomerase IIα-mediated decatenation assay; format: biochemical; design: purchased TopoGEN Inc
# Sequence of Human topoisomerase IIα (P11388 whole entry): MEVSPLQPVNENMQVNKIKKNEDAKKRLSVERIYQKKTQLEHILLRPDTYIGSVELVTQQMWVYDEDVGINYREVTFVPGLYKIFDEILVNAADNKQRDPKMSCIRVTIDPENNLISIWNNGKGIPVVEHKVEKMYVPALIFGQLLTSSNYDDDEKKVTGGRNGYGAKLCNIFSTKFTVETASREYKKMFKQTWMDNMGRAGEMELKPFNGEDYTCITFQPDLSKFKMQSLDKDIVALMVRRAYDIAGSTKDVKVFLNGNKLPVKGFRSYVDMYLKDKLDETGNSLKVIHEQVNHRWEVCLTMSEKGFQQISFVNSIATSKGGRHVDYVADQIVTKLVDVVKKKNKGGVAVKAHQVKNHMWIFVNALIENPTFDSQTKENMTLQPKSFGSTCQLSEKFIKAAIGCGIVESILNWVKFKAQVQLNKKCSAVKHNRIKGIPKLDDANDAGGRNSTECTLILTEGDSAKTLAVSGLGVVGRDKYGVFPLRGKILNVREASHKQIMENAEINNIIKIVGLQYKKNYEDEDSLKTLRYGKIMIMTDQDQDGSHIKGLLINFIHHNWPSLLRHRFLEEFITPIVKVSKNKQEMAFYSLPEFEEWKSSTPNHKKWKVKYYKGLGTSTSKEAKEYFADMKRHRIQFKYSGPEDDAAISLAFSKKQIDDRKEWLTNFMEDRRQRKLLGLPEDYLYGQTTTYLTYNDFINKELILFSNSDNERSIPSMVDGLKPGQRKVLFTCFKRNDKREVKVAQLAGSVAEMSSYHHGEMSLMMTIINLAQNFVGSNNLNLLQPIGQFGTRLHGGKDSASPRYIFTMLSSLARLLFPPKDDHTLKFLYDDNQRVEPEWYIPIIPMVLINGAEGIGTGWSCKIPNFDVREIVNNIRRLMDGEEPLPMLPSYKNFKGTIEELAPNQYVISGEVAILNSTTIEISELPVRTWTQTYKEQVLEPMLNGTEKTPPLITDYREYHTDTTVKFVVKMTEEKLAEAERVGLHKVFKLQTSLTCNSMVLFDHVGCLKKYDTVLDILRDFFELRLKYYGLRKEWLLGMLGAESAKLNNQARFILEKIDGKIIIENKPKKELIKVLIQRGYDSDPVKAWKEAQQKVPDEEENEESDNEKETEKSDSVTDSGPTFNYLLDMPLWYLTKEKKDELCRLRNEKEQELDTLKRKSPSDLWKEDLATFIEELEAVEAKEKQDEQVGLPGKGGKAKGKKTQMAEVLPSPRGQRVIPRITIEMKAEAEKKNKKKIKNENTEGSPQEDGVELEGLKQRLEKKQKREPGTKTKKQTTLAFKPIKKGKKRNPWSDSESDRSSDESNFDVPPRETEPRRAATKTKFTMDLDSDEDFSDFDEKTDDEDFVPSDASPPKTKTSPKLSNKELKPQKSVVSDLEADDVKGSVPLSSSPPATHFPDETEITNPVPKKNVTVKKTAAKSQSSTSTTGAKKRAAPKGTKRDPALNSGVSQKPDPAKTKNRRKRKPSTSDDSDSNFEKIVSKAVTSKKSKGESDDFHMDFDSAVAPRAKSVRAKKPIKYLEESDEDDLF
# Method: Human Topoisomerase IIα-mediated relaxation assays and decatenation assays were performed as per the manufacturer's instructions in a total of 20 μL. Relaxation assays contained Topoisomerase IIα (4.3 nM), 50 mM Tris.HCl pH 8,120 mM KCl, 10 mM MgCl2, 0.5 mM DTT, 0.5 mM ATP, 4.6 nM of supercoiled pBR322 DNA, and inhibitor where appropriate. Decatenation assays substituted the supercoiled DNA with 200 ng catenated kinetoplast DNA.
# as §1
# E. coli Topoisomerase IV [3] = target: T1, E. coli Topoisomerase IV; experiment: biochemical; design: purchased John Innes Enterprises (Norwich, UK); details: read-out: Topo IV, R (relaxation reaction) IC50
# Method: Topoisomerase IV-mediated relaxation assays and decatenation assays were performed as previously described (see Peng and Marians, 1993). […] Decatenation assays contained topoisomerase IV (4 nM), 40 mM Tris HCl pH 7.5 at 30° C., 6 mM MgCl2, 10 mM DTT, 1 mM spermidine.HCl, 100 mM potassium glutamate, 0.5 mM ATP, 0.5 mg/mL BSA, 200 ng of kinetoplast DNA, and inhibitor where appropriate.
# HeLa cells [4] = experiment: MTT cell viability assay, HeLa; format: cell-based, human; details: cell reads on: Active
# Method: as §4, §5
# HT-29 cells [5] = experiment: cells; format: cell-based, human; details: Homo sapiens, HT-29; MTT, 24 hours; read-out: In vivo HT29 Cells (approximate IC50)
# Method: (§2) Human cell cultures were initiated from frozen cell stocks (the gift of Dr J. Gavrilovic, UEA). The HT-29 line is derived from a colorectal adenocarcinoma while HeLa cells are derived from a cervical epithelial adenocarcinoma (see FIG. 35). Both human cell lines form adherent cultures and were maintained at 37° C. in T25 culture vessels as 10 mL cultures in CO2 Independent Media containing 10% foetal bovine serum (EU approved), 4 mM L-glutamine, penicillin/streptomycin (Invitrogen). A subcultivation ratio of 1:3 and 1:6 were maintained for HT-29 and HeLa lines respectively. Media was renewed every three days.
# (§3) The assay to determine the effects of the heterocyclic compounds on mammalian cells is based on the cleavage of the yellow tetrazolium salt MTT to purple formazoan crystals by metabolically active cells (Roche). After incubation with MTT and solubilization, the resulting coloured solution is quantified using a scanning spectrophotometer. Each of the cell lines was trypsinised and resuspended in fresh media prior to transfer to sterile flat-bottomed microtitre plates (200 μL per well) and allowed to recover for 16 hours. Five thousand HT-29 or 7500 HeLa cells per 100 μL culture medium were incubated in the presence of the drugs in various concentrations (totalling 10 μL) for 24 hours. Cell viability was then determined by addition of MTT reagent (20 μL) in each well, as per manufacturer's instructions and incubated for a further 4 hours. Solubilization solution (100 μL) was added per well and the plates incubated overnight at 37° C. The plates were read in a spectrophotometer (scanning from 500-650 nm, signal peak at 570 nm). A representative result is illustrated in FIG. 36.
# HeLa cells [6] = experiment: cells; format: cell-based, human; details: Homo sapiens, HeLa; MTT, 24 hours; read-out: In vivo HeLa Cells (approximate IC50)
# Method: as §2, §3
compound,measurement,setting,value
CC(C)(C)OC(=O)NCc1nc(C(=O)O)co1 [#6],In vivo HT29 Cells activity,HT-29 cells [1],Not
same,"Decatenation activity of topoisomerase IV, sensitivity",E. coli Topoisomerase IV [2],albeit weakly
same,"Decatenation activity of eukaryotic topoisomerase IIα, sensitivity",Human topoisomerase IIα,albeit weakly
same,IC50,E. coli Topoisomerase IV [3],> 300 µM
same,In vivo HeLa Cells activity,HeLa cells [4],Not
same,IC50,HT-29 cells [5],> 75 µM
same,IC50,HeLa cells [6],> 75 µM
